Molecules are shown by their SMILES.

The term melting point denotes the temperature of the solid-liquid transition. `CCOC(=O)c1c(N)sc2c1CCN(C(=O)OCC)C2` yielded a melting point of 145 to 147 °C. Turning to `NC(=NO)C1CCCc2ccccc21` (stereo unspecified), the melting point was in the range of 133 to 135 °C. `Cc1nn(Cc2ccccc2)c(C)c1C=O`: the melting point lay within 72 to 74 °C. `NS(=O)(=O)c1cc([N+](=O)[O-])ccc1F` yielded a melting point of 139 to 141 °C.

Turning to `Cc1ccc(C)c(S(N)(=O)=O)c1`, the melting point lay within 149 to 151 °C. `CCOc1cccc2c1OCC(C(=O)O)C2` (stereo unspecified) showed a melting point of 160 to 162 °C. The same measure for `O=C(O)c1ccccc1OCc1ccccc1Cl`: 119 to 121 °C. To `CCNc1ccc(S(=O)(=O)C(F)(F)F)cc1` belongs 63 to 65 °C; to `O=C1Cn2ccnc2CN1`, 179 to 181 °C; to `OC1CCOc2ccc(Br)cc21` (stereo unspecified), 91 to 93 °C. To `Nc1cc(F)c(-n2ccnc2)c(F)c1` belongs 159 to 161 °C. Molecule `Cc1nn(C)c2nc(C3CC3)cc(C(=O)O)c12` showed a melting point of 242 to 244 °C. For `O=C(COc1ccccc1C(=O)O)Nc1ccccc1F`, the melting point fell in the range of 197 to 199 °C. The molecule `N#CC1(c2ccc3c(c2)OCO3)CC1` had a melting point of 73 to 75 °C. To `N#CCNc1cccc(Cl)c1` belongs 51 to 53 °C. The same measure for `CC(=O)c1ccc(C)c([N+](=O)[O-])c1`: 59 to 62 °C; for `COc1ccc(S(=O)(=O)NCCC(=O)O)cc1`: 125 to 127 °C. The same measure for `CNS(=O)(=O)c1ccc(S(N)(=O)=O)cc1`: 154 to 156 °C; for `CC(C)(O)c1cnc(Cl)nc1`: 98 to 100 °C. In turn, `N#CN=C1CCCN1` yielded a melting point of 126 to 128 °C. To `CC(C)(C)c1ccc(SCC(=O)O)cc1` belongs 65 to 67 °C. To `NS(=O)(=O)NCc1ccccc1` belongs 107 to 109 °C; to `O=C(O)c1ccc([N+](=O)[O-])cc1Br`, 164 to 166 °C. To `NS(=O)(=O)CC(=O)O` belongs 119 to 121 °C; to `O=c1c2ccccc2nc(S)n1Cc1ccc(Cl)cc1`, 221 to 223 °C; to `Cc1nn(-c2ccccn2)c2nc(C3CC3)cc(C(=O)O)c12`, 237 to 239 °C.

`O=C(O)c1cc(C2CC2)nc2c1cnn2Cc1ccccc1` returned a melting point of 209 to 211 °C. To `Cc1ccccc1-n1c(S)nc2ccccc2c1=O` belongs 96 to 97 °C; to `Clc1cc(Cl)cc(OCC2CCNCC2)c1`, 59 to 61 °C. To `CCOC(=O)c1cnc2nccn2c1` belongs 168 to 170 °C; to `CC(Oc1cccnc1N)c1ccccc1` (stereo unspecified), 83 to 85 °C; to `CN(C)C(=O)c1ccc(Cl)c(N)c1`, 76 to 78 °C.

Consider `COC(=O)COc1ccc(C(=O)O)cc1`, for which the melting point is 172 to 174 °C. `CC(=O)Nc1cc(F)c(F)cc1N` showed a melting point of 162 to 164 °C. The same measure for `COc1cccc(-c2nc(C=O)cs2)c1`: 92 to 94 °C. To `Nc1cc(Cl)ccc1C(=O)N1CCCC1` belongs 118 to 120 °C; to `O=c1[nH]cc(N2CCOCC2)c(=O)[nH]1`, 304 to 306 °C. To `CS(=O)(=O)c1ccc(N)cc1F` belongs 116 to 118 °C. `CCCC(=O)NC1CCCNC1` (stereo unspecified) returned a melting point of 57 to 59 °C. To `Cc1ccc(C(O)CN)cc1` (stereo unspecified) belongs 70 to 72 °C; to `O=C1NCC(Br)C(=O)N1` (stereo unspecified), 200 to 202 °C. The same measure for `Cc1ccc(S(=O)(=O)Nc2ccc(C(=O)O)cc2)cc1C`: 219 to 221 °C; for `Cc1[nH]c(C(=O)O)c(C)c1C(=O)O`: 244 to 246 °C; for `COc1cc(OC)c2cc(C(=O)O)[nH]c2c1OC`: 181 to 183 °C.

In the case of `N#CC(C#N)=C1Nc2ccccc2N=C1Cl`, the melting point was in the range of 264 to 266 °C.

The molecule `NC(=O)CC(NS(=O)(=O)c1cccc(F)c1)C(=O)O` (stereo unspecified) returned a melting point of 173 to 175 °C. The same measure for `Nc1c(Cl)cnn1C1CCN(Cc2ccccc2)C1` (stereo unspecified): 106 to 108 °C.

Molecule `Cn1cc(S(=O)(=O)N2CCCCC2)cc1C(=O)O` yielded a melting point of 236 to 238 °C.

`Cc1cc(C)c2c(N)c(C(=O)NN)sc2n1` gave a melting point of 245 to 247 °C. To `O=C(O)Cc1csc(-c2ccccc2Cl)n1` belongs 105 to 109 °C. The same measure for `O=C1CC(C(F)(F)F)NCCN1` (stereo unspecified): 136 to 138 °C; for `CC(C)C(Br)C(=O)N(C)C1CCCCC1` (stereo unspecified): 72 to 74 °C. The same measure for `CCCN(CCC)C(=O)C1C2C=CC(C2)C1C(=O)O` (stereo unspecified): 113 to 115 °C; for `Cc1cc(N)n(C)c(=O)c1`: 192 to 194 °C; for `Cc1ccc(N2N=C(Br)CC2C(=O)O)cc1` (stereo unspecified): 79 to 81 °C. In turn, `Clc1ccnc2cc(Br)cnc12` displayed a melting point of 182 to 184 °C. In the case of `O=C(c1ccc(F)cc1)c1ccc(C(F)(F)F)cc1`, the melting point was in the range of 100 to 102 °C.

The molecule `CCOC(=O)/C(C#N)=C/Nc1cc(Cl)ccc1OC` yielded a melting point of 132 to 134 °C. The same measure for `CN(C(=O)c1ccc(N)cc1)C1CCCCC1`: 176 to 178 °C; for `CCCCn1c(=O)[nH]c(=O)c2cc(C(=O)O)cnc21`: 216 to 218 °C. In turn, `Cn1c(=O)oc(=O)c2cc([N+](=O)[O-])ccc21` returned a melting point of 180 to 182 °C. To `CCOC(=O)c1csc(NC2CC2)n1` belongs 89 to 91 °C; to `CC1=CC(C)=NS(=O)(=O)N1`, 119 to 121 °C; to `CC(Cc1ccccc1Cl)C(=O)O` (stereo unspecified), 56 to 58 °C. The same measure for `COc1ccc(S)c2ccccc12`: 142 to 144 °C. The same measure for `O=C(O)c1c[nH]c(=O)c(Br)c1`: 307 to 309 °C. For `COc1ccc(C(CNC(=O)OCC(F)(F)F)N2CCCC2)cc1` (stereo unspecified), the melting point lay in the range of 55 to 57 °C. The same measure for `Nc1nonc1C(=O)N1CCOCC1`: 136 to 138 °C; for `Cc1ccc(CC(=O)O)cc1O`: 105 to 107 °C; for `CCOc1cc(C=CC(=O)O)ccc1OCCOc1ccccc1`: 187 to 189 °C. On to `COc1ccc(NS(=O)(=O)c2ccc(C=CC(=O)O)cc2)cc1`, for which the melting point lay in the range of 238 to 240 °C. Molecule `O=c1ccc(Cl)n[nH]1` displayed a melting point of 138 to 140 °C.

Take `COC(=O)c1sccc1S(N)(=O)=O`: the melting point lay in the range of 120 to 122 °C.

`O=C(O)COc1ccc(S(=O)(=O)Cl)cc1F` returned a melting point of 131 to 133 °C. To `Cc1ccc(C)c(-n2ccnc2SCC(=O)O)c1` belongs 128 to 130 °C; to `Cc1ccc2c(c1C)NC(=O)C2=O`, 228 to 232 °C. The same measure for `CC(=O)Nc1ccc(S(=O)(=O)N2CCC(N)CC2)cc1`: 212 to 214 °C; for `CC(Cl)C(=O)Nc1ccccc1Oc1ccccc1` (stereo unspecified): 64 to 66 °C. The same measure for `CC(C)c1ccc(C(CN)NC(=O)OC(C)(C)C)cc1` (stereo unspecified): 123 to 125 °C. For the molecule `COc1ccc(S(=O)(=O)N2CCC(=O)CC2)cc1`, the melting point was in the range of 126 to 128 °C. In turn, `O=C(O)C1CC(=O)N(c2ccccc2Cl)C1` (stereo unspecified) gave a melting point of 141 to 143 °C. The same measure for `Cc1ccc(S(=O)(=O)N2CCN(C(=O)C(C)Cl)CC2)cc1` (stereo unspecified): 153 to 155 °C. Regarding `CC(C)CNS(=O)(=O)c1ccc(C#N)cc1`, the melting point fell in the range of 99 to 101 °C. Regarding `O=C(O)C(CS(=O)(=O)c1ccccc1)N1CCOCC1` (stereo unspecified), the melting point is 190 to 192 °C. `O=C(C=NO)Nc1ccc(F)cc1Cl` showed a melting point of 145 to 147 °C.

The molecule `CCCn1ncc(C(=O)O)c1C1CC1` yielded a melting point of 119 to 121 °C.

Molecule `CC(=O)Nc1ccc(CCN)cc1` showed a melting point of 121 to 123 °C. To `NC(=O)C1CCN(S(N)(=O)=O)CC1` belongs 228 to 230 °C; to `Cc1ccc(Br)cc1N`, 31 to 33 °C; to `Cc1ccc(CNCCO)cc1`, 62 to 64 °C. To `Cn1c(=O)n(CC(=O)O)c2ccccc21` belongs 202 to 204 °C. The same measure for `Cc1c(-c2cccnc2)noc1N`: 177 to 179 °C; for `CC1CCCC(NC(=O)OC(C)(C)C)(C(=O)O)C1` (stereo unspecified): 149 to 151 °C.

`O=C(O)CCS(=O)(=O)Cc1cccc(Br)c1`: the melting point lay in the range of 156 to 158 °C. Molecule `ClCc1csc(Cc2ccc(Cl)cc2)n1` returned a melting point of 68 to 70 °C. The same measure for `O=C(O)CCc1ccnc2ccccc12`: 197 to 199 °C; for `NC(=O)C=C1CCCC1`: 141 to 143 °C.

Regarding `CC(=O)Nc1cc2c(cc1C)OCO2`, the melting point lay within 164 to 166 °C. In turn, `Nc1ncnc2sc3c(c12)CCCC3` returned a melting point of 239 to 241 °C. On to `CC(C)CC1CC(=O)NC(=O)C1`, for which the melting point lay in the range of 136 to 138 °C. To `CC(C)c1ccc(NC(=S)NN)cc1` belongs 179 to 181 °C; to `CS(=O)c1ccccc1C(=O)O` (stereo unspecified), 130 to 135 °C. With `O=S(=O)(Cl)C12CC3CC(CC(C3)C1)C2`, the melting point fell in the range of 121 to 123 °C. For `COc1ccc2cc(C(C)Cl)ccc2c1` (stereo unspecified), the melting point was in the range of 82 to 84 °C.

Take `COCCNc1nnc(S)s1`: the melting point was 120 to 122 °C. Molecule `O=Cc1ncc(-c2cccc(Br)c2)[nH]1` returned a melting point of 209 to 211 °C. To `CC(C)n1ncc(C(=O)O)c1N` belongs 109 to 111 °C; to `CN(C)C(=O)CN1CCNCC1`, 35 to 37 °C. To `CCOC(=O)c1cc(S(C)(=O)=O)ccc1N` belongs 130 to 132 °C; to `Fc1cccc2ncnc(Cl)c12`, 139 to 141 °C. To `COc1ccc(NC(=O)COc2ccccc2C(=O)O)cc1Cl` belongs 229 to 231 °C; to `CS(=O)(=O)OCC1CCOCC1`, 61 to 63 °C. For `O=C(O)c1ccc(CN2C(=O)C=CC2=O)cc1`, the melting point fell in the range of 163 to 165 °C. To `O=c1c(Cl)c(Cl)cnn1-c1ccc(S(=O)(=O)Cl)cc1` belongs 144 to 146 °C; to `NC(=O)NCc1ccc(S(N)(=O)=O)cc1`, 175 to 177 °C; to `CCOc1cc(CC#N)ccc1OCC(F)(F)F`, 40 to 42 °C. In turn, `COc1cc(CC#N)ccc1OCC(F)(F)F` returned a melting point of 62 to 64 °C. `CCCC(NC(N)=O)C(=O)O` (stereo unspecified) came in with a melting point of 170 to 172 °C. As for `ClCc1nnc(-c2cccc(Cl)c2)o1`, the melting point lay within 76 to 78 °C. The same measure for `CCCC(=O)Nc1c(Cl)cc(Cl)cc1C(=O)O`: 180 to 182 °C; for `CSc1cnn(-c2ccccc2)c1N`: 77 to 79 °C.

The values above are taken from a melting point compilation (Tetko et al.).
